Laboratory results published in publication PMC10454375, “Cell-Impermeable Inhibitors Confirm That Intracellular Human Transglutaminase 2 Is Responsible for the Transglutaminase-Associated Cancer Phenotype” (International Journal of Molecular Sciences, 2023).
Peptide text beside a SMILES is read from it. * marks the point of attachment. X1 = C=CC(=O)NCCCCC(NC(=O)OCc1ccccc1)C(=O)N1CCN(C(=O)C(CCC(=O)*)NC(=O)c2cccc3ccccc23)CC1

Assays:
[1] = MDCK cell permeability assay; type: in vitro ADME; conditions: dog, without Pgp inhibitor
P-gp = assay: MDCK cell permeability assay; type: in vitro ADME; conditions: dog, without Pgp inhibitor
Log D = type: physicochemical
Source text: Table 2 Representative pharmacokinetic properties for cell-impermeable inhibitors 17 and 18. | column: 17; 18 (NCEG2)

Recombinant human TG2 = target: T1, Recombinant human TG2 (Homo sapiens, UniProt P21980); assay: rhTG2 inhibition assay, continuous chromogenic substrate AL5, Kitz and Wilson conditions; type: biochemical; conditions: for kinact / Ki: * compounds fitted to double reciprocal model, 25 °C, pH 6.9, 100 µM AL5; for kinact/KI: * double reciprocal model, ** lowest concentrations of saturation plot fitted to a linear model; for Ki: irreversible inhibition
T1 construct: GST (with PSP protease site, plasmid pGST-PSP-rhTG2) (N, cleaved yes); made in house; host or cells: E. coli (BL21)
T1 sequence (P21980 1-687): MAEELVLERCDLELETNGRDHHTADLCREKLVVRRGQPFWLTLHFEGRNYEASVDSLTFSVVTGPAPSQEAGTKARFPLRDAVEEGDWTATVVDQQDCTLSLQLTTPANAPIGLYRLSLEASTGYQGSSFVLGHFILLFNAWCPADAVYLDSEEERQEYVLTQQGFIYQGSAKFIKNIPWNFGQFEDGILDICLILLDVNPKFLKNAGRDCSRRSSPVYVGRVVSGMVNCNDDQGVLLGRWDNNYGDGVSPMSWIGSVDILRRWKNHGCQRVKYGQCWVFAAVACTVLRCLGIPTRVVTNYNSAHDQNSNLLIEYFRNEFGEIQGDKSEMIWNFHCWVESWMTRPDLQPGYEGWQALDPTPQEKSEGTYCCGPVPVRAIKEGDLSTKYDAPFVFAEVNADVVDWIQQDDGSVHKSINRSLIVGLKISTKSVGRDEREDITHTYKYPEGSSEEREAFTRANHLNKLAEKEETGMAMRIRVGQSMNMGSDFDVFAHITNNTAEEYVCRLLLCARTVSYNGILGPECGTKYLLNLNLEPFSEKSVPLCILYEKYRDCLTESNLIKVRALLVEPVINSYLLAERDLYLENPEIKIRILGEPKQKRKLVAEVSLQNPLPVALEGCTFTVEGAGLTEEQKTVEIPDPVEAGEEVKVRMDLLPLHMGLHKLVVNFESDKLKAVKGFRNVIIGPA
Source text: Relative to the original scaffold, we expected the potency of these novel chemical biology tools to decrease slightly, due to the additional bulk incorporated on the glutamate sidechain. Although we expected the sidechain moiety to be directed into bulk solvent, we were concerned that its mass and charge would disfavor the binding interaction. Therefore, we kinetically characterized these probes as rigorously as possible, in order to determine their relative affinity and reactivity. For most inhibitors we have made, including the parent inhibitor AA9 (Figure 1), we have been able to measure kinetic parameters under Kitz and Wilson conditions. This experimental approach is based on the use of a continuous activity assay and the measurement of first-order rate constants for the time-dependent inactivation of enzyme (see Figure 2A and Figures S1–S5 in Supplementary Materials). The dependence of these observed rate constants (kobs) on the inhibitor concentration divided by alpha ([I]/α) can then be fitted to a hyperbolic saturation model where the upper plateau represents the rate constant of inactivation (kinact), and the concentration providing half the rate constant of inactivation represents KI (Figure 2B). […] To compensate for this, the overall efficiency of the inhibitor (kinact/KI) can be derived from the slope of the linear region of the saturation plot (Figure 2C). To gauge the individual parameters, a double reciprocal fitting was also employed where KI can be calculated from the x-axis intercept and kinact can be calculated from the y-axis intercept (Figure 2D).
Recombinant human TG2 was expressed and purified using previously published protocols. The inhibition was monitored using a continuous chromogenic substrate AL5 [38] under Kitz and Wilson conditions. In brief, 125 µL of assay buffer composed of 111.11 mM MOPS, 15.56 CaCl2 pH 6.9 was added to a 1.5 mL Eppendorf tube to achieve final assay concentrations of 50 mM MOPS and […] CaCl2. To the tube was then added the respective concentration of inhibitor from an aqueous working stock (<5% DMSO final conditions). Various volumes of water were then added to ensure the final volumes were equal. The AL5 substrate was added to the Eppendorf tube as a 5 µL 5.56 mM solution in DMSO to obtain a final assay concentration of 100 µM. A 96-well polystyrene microplate then had 180 µL of the assay mixture added to it. The enzymatic reaction was finally initiated by addition of 20 µL 5 mU prediluted TG2 in assay buffer using a multichannel pipette. The reaction was monitored at 405 nm using a BioTek Synergy 4 plate reader for 20 min at 25 °C. A positive control with no inhibitor and a blank with no enzyme nor inhibitor were also included. The blank subtracted kinetic curves were then analyzed. The observed first-order rate constants of inactivation were gathered through a one-phase association model using the GraphPad software package. The rate constants were then fit to various models to elucidate the inhibition parameters. If saturation was achieved, they were fit to a saturation model versus the inhibitor concentration divided by alpha (where α=1+Substrate/Km ). A linear regression of the linear region of this saturation fitting was calculated to obtain a ratio of kinact/KI. A further double reciprocal model was used if saturation could not be observed due to the limitations in sensitivity of the assay or if solubility issues were present.

PAMPA test = type: in vitro ADME; conditions: compound not detected in receptor compartment, limit of detection reported
Source text: The cell-impermeable inhibitors 17 and 18 were designed to violate virtually all of the rules for cellular permeability described by Lipinski and Veber. They were also empirically evaluated with respect to their pharmacokinetic properties, in particular to determine their cell permeability. In a PAMPA test, the −Log Pe values were very high (Table 2). […] Indeed, neither compound was even detected in the receptor compartment for the PAMPA, resulting in the lower limit of detection being reported as an approximate value.

| SMILES | Papp A→B [1] [×10⁻⁶ cm/s] | Papp B→A [1] [×10⁻⁶ cm/s] | efflux ratio (P-gp) | logD (Log D) | kinact (Recombinant human TG2) [s⁻¹] | kinact/KI (Recombinant human TG2) [M⁻¹ s⁻¹] | Ki (Recombinant human TG2) [nM] | −Log Pe (PAMPA test) |
| --- | --- | --- | --- | --- | --- | --- | --- | --- |
| C=CC(=O)NCCCCC(NC(=O)OCc1ccccc1)C(=O)N1CCN(C(=O)C(CCC(=O)NCCCCCC(=O)NC(CC(=O)O)C(=O)NC(CC(=O)O)C(=O)NC(CC(=O)O)C(=O)O)NC(=O)c2cccc3ccccc23)CC1 (stereo not shown) [Compound 17] | 0.31 | 0.42 | 1.39 | < -2.73 | 0.0065 | 6820 | 1000 ± 300 | >9.02 |
| C=CC(=O)NCCCCC(NC(=O)OCc1ccccc1)C(=O)N1CCN(C(=O)C(CCC(=O)NCC(=O)NCC(=O)NCC(=O)NC(CC(=O)O)C(=O)NC(CC(=O)O)C(=O)NC(CC(=O)O)C(=O)O)NC(=O)c2cccc3ccccc23)CC1 (stereo not shown) [Compound 18] (X1-GGGDDD-OH; configuration not given here) | 0.47 | 0.56 | 1.18 | < -2.63 | 0.0388 | 9380 | 4100 ± 2100 | >8.79 |
